According to BindingDB's records for aid1799746 (Csar, 2012):

target: T1, UDP-3-O-acyl-N-acetylglucosamine deacetylase (Aquifex aeolicus (strain VF5), UniProt O67648); experiment: ITC; details: pH 7; 25 °C
T1 sequence (O67648 whole entry): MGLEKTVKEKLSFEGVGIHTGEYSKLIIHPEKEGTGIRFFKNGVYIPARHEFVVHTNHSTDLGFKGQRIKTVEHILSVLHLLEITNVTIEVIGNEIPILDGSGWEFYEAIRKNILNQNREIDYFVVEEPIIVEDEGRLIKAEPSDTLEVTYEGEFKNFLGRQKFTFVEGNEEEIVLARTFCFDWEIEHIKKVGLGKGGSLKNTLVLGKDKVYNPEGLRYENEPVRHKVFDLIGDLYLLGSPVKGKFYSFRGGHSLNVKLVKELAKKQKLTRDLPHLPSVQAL

Row | SMILES | Kd [nM]
1 | NC[C@H](NC(=O)c1ccc(-c2ccc(Br)cc2)cc1)C(=O)NO [CS250] | 242
2 | O=C(NO)[C@H]1COC(c2ccc(F)c(C(F)(F)F)c2)=N1 [CS271] | 3960
3 | C[C@@H](O)[C@H](NC(=O)c1ccc(-c2ccccc2)cc1)C(=O)NO [CS263] | 224
4 | NC[C@H](NC(=O)c1ccc(-c2ccccc2)cc1)C(=O)NO [CS249] | 732
5 | O=C(NO)c1csc(-c2ccc(F)c(C(F)(F)F)c2)n1 [CS277] | 3500
6 | O=C(NO)[C@H]1COC(c2ccc(F)cc2)=N1 [CS279] | 14800
7 | C[C@@H](O)[C@H](NC(=O)c1ccc(C#Cc2ccccc2)cc1)C(=O)NO [CS259] | 1210
8 | O=C(NO)[C@H]1COC(c2cc3cc(F)ccc3[nH]2)=N1 [CS272] | 2250
9 | C[C@@H](O)[C@H](NC(=O)c1ccc(-c2ccc(Br)cc2)cc1)C(=O)NO [CS258] | 122
